Here are results for four compounds from ChEMBL document CHEMBL1154755, “Discovery of 6alpha-ethyl-23(S)-methylcholic acid (S-EMCA, INT-777) as a potent and selective agonist for the TGR5 receptor, a novel target for diabesity” (J Med Chem, 2009).

The nature of data set [1]: Metabolic stability in bile fistula rat model assessed as intact drug level recovered in bile at 1 umol/min/kg administered intraduodenally over 1 hr. It is filed as ADME. The settings on record: in vivo, other.
Data set [2] is described as follows: Metabolic stability in bile fistula rat model assessed as intact drug level recovered in bile at 1 umol/min/kg, iv over 1 hr. It is filed as ADME, organism-based. The note with it: in vivo.
A short description of data set [3]: Metabolic stability in human stool broth culture assessed as unmodified drug level after 12 hrs. It is filed as ADME. The settings on record: read-out: Stability.

Consider `CC[C@H]1[C@@H](O)[C@@H]2[C@H](C[C@H](O)[C@]3(C)[C@@H]([C@H](C)C[C@@H](C)C(=O)O)CC[C@@H]23)[C@@]2(C)CC[C@@H](O)C[C@@H]12`, for which the Stability in data set [1] came out at 68 %Idose; in data set [2], 65 %Idose.

With `CC[C@H]1[C@@H](O)[C@@H]2[C@H](C[C@H](O)[C@]3(C)[C@@H]([C@H](C)C[C@H](C)C(=O)O)CC[C@@H]23)[C@@]2(C)CC[C@@H](O)C[C@@H]12`, the Stability in data set [1] is on record as 94 %Idose; in data set [2] it was 93 %Idose. For the same compound, the remaining at 12 h in data set [3] is above 95%.

For the compound `C[C@H](CCC(=O)O)[C@H]1CC[C@H]2[C@@H]3[C@H](O)C[C@@H]4C[C@H](O)CC[C@]4(C)[C@H]3CC[C@]12C` [CHENODIOL], the figures for the Stability in data set [1] and in data set [2] were 3 %Idose and 4 %Idose, respectively.

On to `C[C@H](CCC(=O)O)[C@H]1CC[C@H]2[C@@H]3[C@H](O)C[C@@H]4C[C@H](O)CC[C@]4(C)[C@H]3C[C@H](O)[C@]12C` [CHOLIC ACID], for which the Stability came out at 12 %Idose in data set [1] and 8 %Idose in data set [2].
